# Measurements: PMC5529658, “Antiproliferative and Antibacterial Activities of Cirsium scabrum from Tunisia” (Evidence-based Complementary and Alternative Medicine : eCAM, 2017)
# What was measured:
# Type in all cases: cell-based
# [1] = tested on: Streptococcus agalactiae T53A4; assay: Antimicrobial assay (MIC, agar dilution); conditions: amoxicillin
# Protocol: (§1) The antimicrobial activity of crude extract and partitions was evaluated against 36 pathogenic microorganisms (22 Gram-positive bacteria, 13 Gram-negative bacteria, and 1 yeast) according to Mahamodo et al.. The 36 microorganisms were grown overnight at 37°C on sloping Mueller-Hinton (MH) agar medium. Briefly, the bacteria were diluted with Ringer's Cysteine (RC) solution to obtain 10^6 bacteria/ml. […] Inocula of 10^4 colony forming units (CFU) were spotted ultimately with a multipoint inoculator (Steers Replicator).
# [2] = tested on: Staphylococcus epidermidis T151; assay: Antimicrobial assay (MIC, agar dilution); conditions: amoxicillin
# Protocol: as §1
# [3] = tested on: Staphylococcus aureus 8148; assay: Antimicrobial assay (MIC, agar dilution); conditions: amoxicillin
# Protocol: as §1
# [4] = tested on: Escherichia coli T20A2; assay: Antimicrobial assay (MIC, agar dilution); conditions: amoxicillin
# Protocol: as §1
# [5] = tested on: Enterococcus faecalis T47A16; assay: Antimicrobial assay (MIC, agar dilution); conditions: amoxicillin
# Protocol: as §1
# [6] = tested on: Staphylococcus capitis T21A3; assay: Antimicrobial assay (MIC, agar dilution); conditions: amoxicillin
# Protocol: as §1
# [7] = tested on: Staphylococcus aureus T11; assay: Antimicrobial assay (MIC, agar dilution); conditions: amoxicillin
# Protocol: as §1
# [8] = tested on: Enterococcus faecalis T37B1; assay: Antimicrobial assay (MIC, agar dilution); conditions: amoxicillin
# Protocol: as §1
# [9] = tested on: Staphylococcus aureus T2510; assay: Antimicrobial assay (MIC, agar dilution); conditions: amoxicillin
# Protocol: as §1
# [10] = tested on: Corynebacterium striatum T46C1; assay: Antimicrobial assay (MIC, agar dilution); conditions: amoxicillin
# Protocol: as §1
# [11] = tested on: Staphylococcus lugdunensis T36A1; assay: Antimicrobial assay (MIC, agar dilution); conditions: amoxicillin
# Protocol: as §1
# [12] = tested on: Staphylococcus epidermidis T19A1; assay: Antimicrobial assay (MIC, agar dilution); conditions: amoxicillin
# Protocol: as §1
# [13] = tested on: Staphylococcus capitis T29A2; assay: Antimicrobial assay (MIC, agar dilution); conditions: amoxicillin
# Protocol: as §1
# [14] = tested on: Staphylococcus lugdunensis T47B2; assay: Antimicrobial assay (MIC, agar dilution); conditions: amoxicillin
# Protocol: as §1
# [15] = tested on: Staphylococcus pettenkoferi T33; assay: Antimicrobial assay (MIC, agar dilution); conditions: amoxicillin
# Protocol: as §1
# [16] = tested on: Staphylococcus aureus T306; assay: Antimicrobial assay (MIC, agar dilution); conditions: amoxicillin
# Protocol: as §1
# [17] = tested on: Staphylococcus aureus 8143; assay: Antimicrobial assay (MIC, agar dilution); conditions: amoxicillin
# Protocol: as §1
# [18] = tested on: Dermabacter hominis T47A7; assay: Antimicrobial assay (MIC, agar dilution); conditions: amoxicillin
# Protocol: as §1
# [19] = tested on: Staphylococcus aureus T61; assay: Antimicrobial assay (MIC, agar dilution); conditions: amoxicillin
# Protocol: as §1
# [20] = tested on: Pseudomonas aeruginosa ATCC9027; assay: Antimicrobial assay (MIC, agar dilution); conditions: amoxicillin
# Protocol: as §1
# [21] = tested on: Staphylococcus saprophyticus 8237; assay: Antimicrobial assay (MIC, agar dilution); conditions: amoxicillin
# Protocol: as §1
# [22] = tested on: Staphylococcus aureus T26A4; assay: Antimicrobial assay (MIC, agar dilution); conditions: amoxicillin
# Protocol: as §1
# [23] = tested on: Staphylococcus pettenkoferi T282; assay: Antimicrobial assay (MIC, agar dilution); conditions: amoxicillin
# Protocol: as §1
# [24] = tested on: Staphylococcus aureus T21; assay: Antimicrobial assay (MIC, agar dilution); conditions: amoxicillin
# Protocol: as §1
# [25] = tested on: Dermabacter hominis T49B5; assay: Antimicrobial assay (MIC, agar dilution); conditions: amoxicillin
# Protocol: as §1
# [26] = tested on: Staphylococcus aureus T281; assay: Antimicrobial assay (MIC, agar dilution); conditions: amoxicillin
# Protocol: as §1
# [27] = tested on: Pseudomonas aeruginosa T41; assay: Antimicrobial assay (MIC, agar dilution); conditions: amoxicillin
# Protocol: as §1
# [28] = tested on: Staphylococcus aureus 8142; assay: Antimicrobial assay (MIC, agar dilution); conditions: amoxicillin
# Protocol: as §1
# [29] = tested on: Corynebacterium striatum T40A3; assay: Antimicrobial assay (MIC, agar dilution); conditions: amoxicillin
# Protocol: as §1
# [30] = tested on: J774 (macrophage-like cell line, derived from BALB/c murine reticulum cell sarcoma); assay: MTT cytotoxicity assay on J774; conditions: for IC50: Mus musculus, J774, MTT, 72 h, mean ± SEM, six determinations; for SI (IC50 WI38/IC50 J774): selectivity index WI38 vs J774
# Protocol: (§2) Cell Culture. The cytotoxicity was evaluated on two cell lines: J774 (macrophage-like cell line, derived from BALB/c murine reticulum cell sarcoma) and WI38 (human normal fibroblast-like lung cell line), using the tetrazolium salt MTT [3-(4,5-dimethylthiazol-2-yl)-2,5-diphenyltetrazolium bromide (Sigma)] colorimetric method, as described by Bero et al.. J774 cells were cultivated in a humidified atmosphere with 5% CO2 at 37°C in RPMI 1640 medium (Life Technologies, Paisley, UK) containing 2 mM L-glutamine supplemented with 10% heat-inactivated fetal bovine serum (Life Technologies) and penicillin-streptomycin (100 UI/ml). WI38 cells were cultivated in a humidified atmosphere with 5% CO2 at 37°C in DMEM medium (Life Technologies) containing 4 mM L-glutamine, 1 mM sodium pyruvate supplemented with 10% heat-inactivated fetal bovine serum (Life Technologies), and penicillin-streptomycin (100 UI/ml).
# Cytotoxicity Assay. Briefly, WI38 or J774 cells were seeded in 96-well plates (5000 cells/well/180 µl medium or 2.8 × 10^4 cells/ml). After 24 h, cells were treated with 20 μl of crude extract and partitions solutions in a fixed concentration of 50 µg/ml to calculate cell viability percentage. […] After 72 h, the medium was replaced by 100 μl of a 10% MTT solution (3 mg/ml in PBS) in medium. After 45 min, the medium was removed again and 100 μl of DMSO was added to solubilize formed formazan crystals. Absorbance was recorded at 570 nm and 620 nm. Each sample was tested in eight serial […] dilutions in 96-well microtiter plates, at least three wells per concentration in duplicate. Camptothecin (Sigma) was used as positive control (concentration range: 25–0.00032 µg/ml).
# (§3) Cell viability% = [AT/ANT] × 100, with A: absorbance, NT: control cells, and T: treated cells.
# [31] = tested on: WI38 (human normal fibroblast-like lung cell line); assay: MTT cytotoxicity assay on WI38; conditions: WI-38, 72 h, mean ± SEM, six determinations
# Protocol: as §2
# Cytotoxicity Assay. Briefly, WI38 or J774 cells were seeded in 96-well plates (5000 cells/well/180 µl medium or 2.8 × 10^4 cells/ml). After 24 h, cells were treated with 20 μl of crude extract and partitions solutions in a fixed concentration of 50 µg/ml to calculate cell viability percentage. […] Absorbance was recorded at 570 nm and 620 nm. […]
# as §3
smiles,measurement,setting,value
"CC1(C)S[C@@H]2[C@H](NC(=O)[C@H](N)c3ccc(O)cc3)C(=O)N2[C@H]1C(=O)O [Amox, amoxicillin]",Reference antibiotics MIC values,[1],R (R: >16)
same,Reference antibiotics MIC values,[2],R (R: >16)
same,Reference antibiotics MIC values,[3],R (R: >16)
same,Reference antibiotics MIC values,[4],"S (Amox (amoxicillin), S: ≤4)"
same,Reference antibiotics MIC values,[5],R (R: >16)
same,Reference antibiotics MIC values,[6],"S (Amox (amoxicillin), S: ≤4)"
same,Reference antibiotics MIC values,[7],R (R: >16)
same,Reference antibiotics MIC values,[8],"S (Amox (amoxicillin), S: ≤4)"
same,Reference antibiotics MIC values,[9],R (R: >16)
same,Reference antibiotics MIC values,[10],"S (Amox (amoxicillin), S: ≤4)"
same,Reference antibiotics MIC values,[11],"S (Amox (amoxicillin), S: ≤4)"
same,Reference antibiotics MIC values,[12],"S (Amox (amoxicillin), S: ≤4)"
same,Reference antibiotics MIC values,[13],"S (Amox (amoxicillin), S: ≤4)"
same,Reference antibiotics MIC values,[14],"S (Amox (amoxicillin), S: ≤4)"
same,Reference antibiotics MIC values,[15],R (R: >16)
same,Reference antibiotics MIC values,[16],"S (Amox (amoxicillin), S: ≤4)"
same,Reference antibiotics MIC values,[17],"S (Amox (amoxicillin), S: ≤4)"
same,Reference antibiotics MIC values,[18],R (R: >16)
same,Reference antibiotics MIC values,[19],R (R: >16)
same,Reference antibiotics MIC values,[20],R (R: >16)
same,Reference antibiotics MIC values,[21],"S (Amox (amoxicillin), S: ≤4)"
same,Reference antibiotics MIC values,[22],R (R: >16)
same,Reference antibiotics MIC values,[23],"S (Amox (amoxicillin), S: ≤4)"
same,Reference antibiotics MIC values,[24],R (R: >16)
same,Reference antibiotics MIC values,[25],"S (Amox (amoxicillin), S: ≤4)"
same,Reference antibiotics MIC values,[26],R (R: >16)
same,Reference antibiotics MIC values,[27],R (R: >16)
same,Reference antibiotics MIC values,[28],R (R: >16)
same,Reference antibiotics MIC values,[29],R (R: >16)
CC[C@@]1(O)C(=O)OCc2c1cc1n(c2=O)Cc2cc3ccccc3nc2-1 [Camptothecin],IC50,[30],0.011 ± 0.002 µg/mL
same,SI (IC50 WI38/IC50 J774),[30],15^∗∗∗
same,IC50,[31],0.175 ± 0.029 µg/mL
"C=C(C)[C@@H]1CC[C@]2(C)CC[C@]3(C)[C@H](CC[C@@H]4[C@@]5(C)CC[C@H](O)C(C)(C)[C@@H]5CC[C@]43C)[C@@H]12 [Compound 1, lupeol]",IC50,[30],12.6 ± 0.23 µg/mL
same,SI (IC50 WI38/IC50 J774),[30],1.5^∗∗∗
same,SI (IC50 WI38/IC50 J774),[30]; listed as Lupeol,1.5
same,IC50,[31],19.2 ± 0.55 µg/mL
